Assay results reported in PubChem BioAssay (NCI).
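GI50 marks 50% less growth. Definition used: TGI = concentration required for complete inhibition of growth.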

What was measured:
Experiment in all cases: NCI tumour cell line growth inhibition, 384-well format
UACC-257 melanoma = system: UACC-257 melanoma
NCI-H23 lung = system: NCI-H23 lung
MOLT-4 leukemia = system: MOLT-4 leukemia
IGROV1 ovarian = system: IGROV1 ovarian
A498 renal = system: A498 renal
OVCAR-3 ovarian = system: OVCAR-3 ovarian
K-562 leukemia = system: K-562 leukemia
KM12 colon = system: KM12 colon
CCRF-CEM leukemia = system: CCRF-CEM leukemia
SN12C renal = system: SN12C renal
A549 NSCLC = system: A549 NSCLC
BT-549 breast = system: BT-549 breast
COLO 205 colon = system: COLO 205 colon
MDA-MB-231 breast = system: MDA-MB-231 breast
T-47D breast = system: T-47D breast
DU-145 prostate = system: DU-145 prostate
SK-MEL-28 melanoma = system: SK-MEL-28 melanoma
U251 glioblastoma = system: U251 glioblastoma
NCI-H226 lung = system: NCI-H226 lung
CAKI-1 renal = system: CAKI-1 renal
HCT-15 colon = system: HCT-15 colon
SK-MEL-2 melanoma = system: SK-MEL-2 melanoma
HCT-116 colon = system: HCT-116 colon
MDA-MB-435 melanoma = system: MDA-MB-435 melanoma
UACC-62 melanoma = system: UACC-62 melanoma
SK-OV-3 ovarian = system: SK-OV-3 ovarian
SF-268 CNS = system: SF-268 CNS
NCI-H322M lung = system: NCI-H322M lung
NCI-H460 NSCLC = system: NCI-H460 NSCLC
SR leukemia = system: SR leukemia
MCF7 breast = system: MCF7 breast
HOP-62 NSCLC = system: HOP-62 NSCLC
SW-620 colon = system: SW-620 colon
HCC-2998 colon = system: HCC-2998 colon
M14 melanoma = system: M14 melanoma
NCI/ADR-RES ovarian = system: NCI/ADR-RES ovarian
786-0 renal = system: 786-0 renal
SF-539 CNS = system: SF-539 CNS
RPMI-8226 leukemia = system: RPMI-8226 leukemia
OVCAR-5 ovarian = system: OVCAR-5 ovarian
LOX IMVI melanoma = system: LOX IMVI melanoma
HT29 colon = system: HT29 colon
MALME-3M melanoma = system: MALME-3M melanoma
OVCAR-8 ovarian = system: OVCAR-8 ovarian
PC-3 prostate = system: PC-3 prostate
SK-MEL-5 melanoma = system: SK-MEL-5 melanoma
HOP-92 NSCLC = system: HOP-92 NSCLC
MDA-MB-468 breast = system: MDA-MB-468 breast
SNB-19 CNS = system: SNB-19 CNS
UO-31 renal = system: UO-31 renal
HL-60(TB) leukemia = system: HL-60(TB) leukemia
OVCAR-4 ovarian = system: OVCAR-4 ovarian
RXF 393 renal = system: RXF 393 renal
TK-10 renal = system: TK-10 renal
SF-295 CNS = system: SF-295 CNS
ACHN renal = system: ACHN renal

## CCCC[C@@H](COC(=O)N(Cc1cccs1)Cc1cccs1)NC(=O)N[C@@H](CC(=O)OC)c1ccc2c(c1)OCO2
UACC-257 melanoma
  GI50: > 100 µM
  TGI: > 100 µM
NCI-H23 lung
  GI50: 90.7 µM
  TGI: > 100 µM
MOLT-4 leukemia
  GI50: 2.28 µM
  TGI: 4.54 µM
IGROV1 ovarian
  GI50: > 100 µM
  TGI: > 100 µM
A498 renal
  GI50: > 100 µM
  TGI: > 100 µM
OVCAR-3 ovarian
  GI50: > 100 µM
  TGI: > 100 µM
K-562 leukemia
  GI50: > 100 µM
  TGI: > 100 µM
KM12 colon
  GI50: > 100 µM
  TGI: > 100 µM
CCRF-CEM leukemia
  GI50: > 100 µM
  TGI: > 100 µM
SN12C renal
  GI50: > 100 µM
  TGI: > 100 µM
A549 NSCLC
  GI50: > 100 µM
  TGI: > 100 µM
BT-549 breast
  GI50: > 100 µM
  TGI: > 100 µM
COLO 205 colon
  GI50: > 100 µM
  TGI: > 100 µM
MDA-MB-231 breast
  GI50: > 100 µM
  TGI: > 100 µM
T-47D breast
  GI50: 50.5 µM
  TGI: > 100 µM
DU-145 prostate
  GI50: > 100 µM
  TGI: > 100 µM
SK-MEL-28 melanoma
  GI50: > 100 µM
  TGI: > 100 µM
U251 glioblastoma
  GI50: > 100 µM
  TGI: > 100 µM
NCI-H226 lung
  GI50: > 100 µM
  TGI: > 100 µM
CAKI-1 renal
  GI50: > 100 µM
  TGI: > 100 µM
HCT-15 colon
  GI50: > 100 µM
  TGI: > 100 µM
SK-MEL-2 melanoma
  GI50: > 100 µM
  TGI: > 100 µM
HCT-116 colon
  GI50: 7.28 µM
  TGI: > 100 µM
MDA-MB-435 melanoma
  GI50: > 100 µM
  TGI: > 100 µM
UACC-62 melanoma
  GI50: 65 µM
  TGI: > 100 µM
SK-OV-3 ovarian
  GI50: > 100 µM
  TGI: > 100 µM
SF-268 CNS
  GI50: > 100 µM
  TGI: > 100 µM
NCI-H322M lung
  GI50: > 100 µM
  TGI: > 100 µM
NCI-H460 NSCLC
  GI50: > 100 µM
  TGI: > 100 µM
SR leukemia
  GI50: 6.03 µM
  TGI: > 100 µM
MCF7 breast
  GI50: > 100 µM
  TGI: > 100 µM
HOP-62 NSCLC
  GI50: > 100 µM
  TGI: > 100 µM
SW-620 colon
  GI50: > 100 µM
  TGI: > 100 µM
HCC-2998 colon
  GI50: > 100 µM
  TGI: > 100 µM
M14 melanoma
  GI50: > 100 µM
  TGI: > 100 µM
NCI/ADR-RES ovarian
  GI50: 55.5 µM
  TGI: > 100 µM
786-0 renal
  GI50: > 100 µM
  TGI: > 100 µM
SF-539 CNS
  GI50: > 100 µM
  TGI: > 100 µM
RPMI-8226 leukemia
  GI50: 2.87 µM
  TGI: 6.14 µM
OVCAR-5 ovarian
  GI50: > 100 µM
  TGI: > 100 µM
LOX IMVI melanoma
  GI50: > 100 µM
  TGI: > 100 µM
HT29 colon
  GI50: > 100 µM
  TGI: > 100 µM
MALME-3M melanoma
  GI50: > 100 µM
  TGI: > 100 µM
OVCAR-8 ovarian
  GI50: > 100 µM
  TGI: > 100 µM
PC-3 prostate
  GI50: > 100 µM
  TGI: > 100 µM
SK-MEL-5 melanoma
  GI50: 83 µM
  TGI: > 100 µM
HOP-92 NSCLC
  GI50: > 100 µM
  TGI: > 100 µM
MDA-MB-468 breast
  GI50: > 100 µM
  TGI: > 100 µM
SNB-19 CNS
  GI50: > 100 µM
  TGI: > 100 µM
UO-31 renal
  GI50: 53.2 µM
  TGI: > 100 µM
HL-60(TB) leukemia
  GI50: 14.6 µM
  TGI: > 100 µM
OVCAR-4 ovarian
  GI50: > 100 µM
  TGI: > 100 µM
RXF 393 renal
  GI50: 5.08 µM
  TGI: > 100 µM
TK-10 renal
  GI50: > 100 µM
  TGI: > 100 µM
SF-295 CNS
  GI50: > 100 µM
  TGI: > 100 µM
ACHN renal
  GI50: > 100 µM
  TGI: > 100 µM
